In patent publication EP4711368A1 (priority 2023, dated 2024):
Where two headings read alike, the source gives them in different places.

Assays:
[1] = test system: SD rats; conditions: rat, in vivo; for MLD: iv; for Onset time: test concentration or dose not given here; for Righting feflex duration: test concentration or dose not given here; for Sedation Duration: test concentration or dose not given here
[2] = test system: SD rats; assay: animal or person; format: in vivo; conditions: iv; for minimal effective dose: Rattus norvegicus; for Onset time / Righting feflex duration / Sedation Duration / Minimal effective analgesic dose / Minimal effective anesthetic dose: rat, in vivo
[3] = read-out: Minimal effective analgesic dose
[4] = read-out: Minimal effective anesthetic dose

Row | Structure (SMILES) | MLD ([1]; SD) | Onset time [2] | Righting feflex duration [2] | Sedation Duration [2] | MLD [1] | also measured
1 | C=CC(C)OC(=O)CN1N=C(c2ccccn2)c2cc(Br)ccc2-n2c(C)cnc21 (centres unmarked) [Compound 310] | 40 mg/kg | 0.15 to 0.52 min | 2.97 to 38.32 min | 138.40 to 240 min |  | TI ([1]; SD): 4; minimal effective dose [2, 3]: 20 mg/kg; minimal effective dose [2, 4]: 10 mg/kg
2 | CC(C)OC(=O)OCN1N=C(c2ccccn2)c2cc(Br)ccc2N(C)C1=O [Compound 289] | 41.7 mg/kg | 0.15 to 0.68 min | 0.53 to 32.23 min | 20.27 to 311.87 min |  | TI ([1]; SD): 8.3; minimal effective dose [2, 3]: 20 mg/kg; minimal effective dose [2, 4]: 5 mg/kg
3 | CC(=O)OCCC1N=C(c2ccccn2)c2cc(Br)ccc2-n2c(C)cnc21 (centres unmarked) [Compound 145] |  | 0.2 to 0.4 min | 0.5 to 14.3 min | 33.1 to 88.2 min | 30 mg/kg | TI [1]: 6.0; Minimal effective analgesic dose [2]: 20 mg/kg; Minimal effective anesthetic dose [2]: 5.0 mg/kg
4 | CN1C2=NCCN2N=C(c2ccccn2)c2cc(Br)ccc21 [Compound 324] | >15.7 mg/kg |  |  |  |  | 
5 | CCOc1cc(CCN2N=C(c3ccccn3)c3cc(Br)ccc3N(C)C2=O)on1 [Compound 271] | 30 mg/kg |  |  |  |  | 
6 | CN1C(=O)N(COCc2ccccc2)N=C(c2ccccn2)c2cc(Br)ccc21 [Compound 286] | 7.5 mg/kg | 1.32 to 3.20 min | 3.38 to 9.38 min | 42.15 to 64.37 min |  | TI ([1]; SD): 3; minimal effective dose [2, 4]: 2.5 mg/kg
7 | C=CC(=O)OCCC1N=C(c2ccccn2)c2cc(Br)ccc2-n2c(C)cnc21 (centres unmarked) [Compound 151] |  | 0.2 to 3.4 min | 3.7 to 38.6 min | 19.0 to 68.4 min | 29.4 mg/kg | TI [1]: 16.3; Minimal effective anesthetic dose [2]: 1.8 mg/kg
8 | CCOC(=O)C(C)N1N=C(c2ccccn2)c2cc(Br)ccc2N(C)C1=O (centres unmarked) [Compound 276] | 20 mg/kg |  |  |  |  | 
9 | CN1C(=O)N(COC(=O)CCl)N=C(c2ccccn2)c2cc(Br)ccc21 [Compound 288] | 20 mg/kg | 0.80 min | 2.45 min | 33.18 min |  | TI ([1]; SD): 1.3; minimal effective dose [2, 4]: 15 mg/kg
10 | CC(=O)C(C)(C)OC(=O)CCC1N=C(c2ccccn2)c2cc(Br)ccc2-n2c(C)cnc21 (centres unmarked) [Compound 6] |  | 0.3 to 0.8 min | 0.6 to 3.4 min | 4.0 to 10.7 min | >5 mg/kg | TI [1]: >3.8; Minimal effective anesthetic dose [2]: 1.3 mg/kg
11 | C=CC(C)OC(=O)CN1N=C(c2ccccn2)c2cc(Br)ccc2N(C)C1=O (centres unmarked) [Compound 248] | 40 mg/kg | 0.15 to 0.52 min | 2.97 to 38.32 min | 138.4 to 240 min |  | TI ([1]; SD): 4; minimal effective dose [2, 3]: 20 mg/kg; minimal effective dose [2, 4]: 10 mg/kg
12 | CC[C@@H](C)OC(=O)CN1N=C(c2ccccn2)c2cc(Br)ccc2-n2c(C)cnc21 [Compound 309] | 15 mg/kg | 0.35 to 0.55 min | 2.38 to 18.82 min | 27.68 to 46.83 min |  | TI ([1]; SD): 6; minimal effective dose [2, 3]: 12.5 mg/kg; minimal effective dose [2, 4]: 2.5 mg/kg
13 | CCOC(=O)CN1N=C(c2ccccn2)c2cc(Br)ccc2-n2c(C)cnc21 [Compound 307] | >15.15 mg/kg | 0.27 to 0.73 min | 0.90 to 4.27 min | 20.87 to 32.75 min |  | TI ([1]; SD): >1.7; minimal effective dose [2, 4]: 8.75 mg/kg
14 | CC(C)C(=O)CN1N=C(c2ccccn2)c2cc(Br)ccc2N(C)C1=O [Compound 279] |  | 0.35 min | 3.77 min | 62.22 min | 20 mg/kg | TI ([1]; SD): 1.3; minimal effective dose [2, 4]: 15 mg/kg
15 | CC(=O)C(C)(C)OC(=O)CCC1N=C(c2ccccn2)c2cc(Br)ccc2N(C)C1=O (centres unmarked) [Compound 18] |  | 0.2 to 0.9 min | 0.8 to 4.2 min | 4.5 to 10.7 min | >1.2 mg/kg | TI [1]: >2.4; Minimal effective anesthetic dose [2]: 0.5 mg/kg
16 | CCOC(=O)OCCC1N=C(c2ccccn2)c2cc(Br)ccc2-n2c(C)cnc21 (centres unmarked) [Compound 154] |  | 0.5 to 0.9 min | 1.3 to 6.2 min | 14.1 to 17.0 min | 7.5 mg/kg | TI [1]: 2.0; Minimal effective anesthetic dose [2]: 3.8 mg/kg
17 | Cc1c[n+]2c3n1-c1ccc(Br)cc1C(c1ccccn1)=NN3CC2 [Compound 321] | 10 mg/kg |  |  |  |  | 
18 | Cc1cnc2n1-c1ccc(Br)cc1C(c1ccccn1)=NC2CCOC(=O)C(C)C (centres unmarked) [Compound 146] |  | 0.3 to 0.6 min | 3.7 to 9.7 min | 17.3 to 27.1 min | 5 mg/kg | TI [1]: 5.0; Minimal effective anesthetic dose [2]: 1.0 mg/kg
19 | Cc1cnc2n1-c1ccc(Br)cc1C(c1ccccn1)=NC2CCC(=O)OC1COC1 (centres unmarked) [Compound 4] |  | 0.2 to 0.4 min | 1.1 to 3.5 min | 4.2 to 10.8 min | >22.5 mg/kg | TI [1]: >1.5; Minimal effective anesthetic dose [2]: 15.0 mg/kg
20 | CC(C)OC(=O)C(C)N1N=C(c2ccccn2)c2cc(Br)ccc2N(C)C1=O (centres unmarked) [Compound 277] | 20 mg/kg |  |  |  |  | 
21 | Cc1cnc2n1-c1ccc(Br)cc1C(c1ccccn1)=NN2CC(=O)OC1COC1 [Compound 311] | 30 mg/kg | 0.17 to 0.48 min | 2.28 to 12.30 min | 25.88 to 54.23 min |  | TI ([1]; SD): 6; minimal effective dose [2, 3]: 10 mg/kg; minimal effective dose [2, 4]: 5 mg/kg
22 | CCOC(=O)CCC1N=C(c2ccccn2)c2cc([N+](=O)[O-])ccc2N(C)C1=O (centres unmarked) [Compound 28] |  | 0.2 to 0.5 min | 0.5 to 1.6 min | 4.1 to 7.3 min | >11.3 mg/kg | TI [1]: >2.3; Minimal effective anesthetic dose [2]: 5.0 mg/kg
23 | CC(C)OC(=O)CCC1N=C(c2ccccn2)c2cc3nc(C(F)(F)F)sc3cc2N(C)C1=O (centres unmarked) [Compound 181] |  | 0.8 min | 7.8 min | 53.0 min | >40 mg/kg | TI [1]: >1.0; Minimal effective analgesic dose [2]: 40 mg/kg; Minimal effective anesthetic dose [2]: 40.0 mg/kg
24 | C#CC(C)(C)OC(=O)CCC1N=C(c2ccccn2)c2cc([N+](=O)[O-])ccc2N(C)C1=O (centres unmarked) [Compound 32] |  | 0.2 to 0.4 min | 1.8 to 7.7 min | 21.1 to 45.7 min | 30 mg/kg | TI [1]: 6.0; Minimal effective anesthetic dose [2]: 5.0 mg/kg
25 | COC(=O)CCC1N=C(c2ccccn2)c2cc3nc(C(F)(F)F)sc3cc2N(C)C1=O (centres unmarked) [Compound 180] |  |  |  |  | 40 mg/kg | 

Row | Structure (SMILES) | MLD ([1]; SD) | Onset time [2] | Righting feflex duration [2] | Sedation Duration [2] | MLD [1] | also measured
26 | CCn1nnc(CN2N=C(c3ccccn3)c3cc(Br)ccc3N(C)C2=O)n1 [Compound 269] | >36 mg/kg |  |  |  |  | 
27 | COC(=O)CCN1N=C(c2ccccn2)c2cc(Br)ccc2N(C)C1=O [Compound 259] | >20 mg/kg |  |  |  |  | 
28 | CCOC(=O)CN1N=C(c2ccccn2)c2cc(Br)ccc2N=C1SC [Compound 306] |  |  |  |  | 40 mg/kg | 
29 | CCN(C(=O)OCN1N=C(c2ccccn2)c2cc(Br)ccc2N(C)C1=O)C(C)C [Compound 296] | 15 mg/kg |  |  |  |  | 
30 | COc1cc(CCN2N=C(c3ccccn3)c3cc(Br)ccc3N(C)C2=O)on1 [Compound 270] | 29.64 mg/kg |  |  |  |  | 
31 | O=CN1CCN2N=C(c3ccccn3)c3cc(Br)ccc3N=C12 [Compound 322] |  |  |  |  | 34 mg/kg | 
32 | CC(C)OC(=O)OCCN1N=C(c2ccccn2)c2cc(Br)ccc2N(C)C1=O [Compound 302] | 20 mg/kg |  |  |  |  | 
33 | CN1C(=O)N(CCC#N)N=C(c2ccccn2)c2cc(Br)ccc21 [Compound 263] | 40 mg/kg |  |  |  |  | 
34 | Cc1cnc2n1-c1ccc(Br)cc1C(c1ccccn1)=NN2CCOC(=O)OC(C)C [Compound 316] | 10 mg/kg |  |  |  |  | 
35 | CN1C(=O)N(CCc2cc(Br)no2)N=C(c2ccccn2)c2cc(Br)ccc21 [Compound 283] | 40 mg/kg |  |  |  |  | 
36 | CN(C)C(=O)CN1N=C(c2ccccn2)c2cc(Br)ccc2N(C)C1=O [Compound 258] | 40 mg/kg |  |  |  |  | 
37 | C=CC1(OC(=O)CCN2N=C(c3ccccn3)c3cc(Br)ccc3N(C)C2=O)COC1 [Compound 262] | >20 mg/kg |  |  |  |  | 
38 | CN1C(=O)N(CCOC(=O)CCCl)N=C(c2ccccn2)c2cc(Br)ccc21 [Compound 299] | 15 mg/kg |  |  |  |  | 
39 | CCOC(=O)C(C(C)C)N1N=C(c2ccccn2)c2cc(Br)ccc2N(C)C1=O (centres unmarked) [Compound 278] |  |  |  |  | 40 mg/kg | 
40 | Cc1cnc2n1-c1ccc(Br)cc1C(c1ccccn1)=NC2CCOCc1ccccc1 (centres unmarked) [Compound 144] |  |  |  |  | 3.8 mg/kg | 
41 | CCn1nnc(CCN2N=C(c3ccccn3)c3cc(Br)ccc3N(C)C2=O)n1 [Compound 265] |  |  |  |  | 40 mg/kg | 
42 | CCC(CN1N=C(c2ccccn2)c2cc(Br)ccc2N(C)C1=O)OC(=O)C(C)C (centres unmarked) [Compound 282] |  |  |  |  | 15 mg/kg | 
43 | CC(C)Oc1cc(CCN2N=C(c3ccccn3)c3cc(Br)ccc3N(C)C2=O)on1 [Compound 272] | 30 mg/kg |  |  |  |  | 
44 | CC(C)C(=O)OC(CN1N=C(c2ccccn2)c2cc(Br)ccc2N(C)C1=O)C(C)C (centres unmarked) [Compound 280] | 10 mg/kg |  |  |  |  | 
45 | CN1C(=O)C(CCOC(=O)OC2COC2)N=C(c2ccccn2)c2cc(Br)ccc21 (centres unmarked) [Compound 134] |  |  |  |  | 20 mg/kg | 
46 | CN1C(=O)N(C[n+]2ccccc2)N=C(c2ccccn2)c2cc(Br)ccc21 [Compound 297] | 5 mg/kg |  |  |  |  | 
47 | CN1C(=O)N(CCOCc2ccccc2)N=C(c2ccccn2)c2cc(Br)ccc21 [Compound 285] | 15 mg/kg |  |  |  |  | 
48 | CCn1nnnc1CN1N=C(c2ccccn2)c2cc(Br)ccc2N(C)C1=O [Compound 268] |  |  |  |  | 40 mg/kg | 
49 | CCC(=O)CN1N=C(c2ccccn2)c2cc(Br)ccc2N(C)C1=O [Compound 281] | 40 mg/kg |  |  |  |  | 
50 | C=CC(=O)OCCN1N=C(c2ccccn2)c2cc(Br)ccc2N(C)C1=O [Compound 301] | 27.4 mg/kg |  |  |  |  | 
